Results taken from patent US20080200431A1, “Heterocyclic Sulfonamide Derivatives as Inhibitors of Factor Xa” (ASTRAZENECA AB, priority 2005, published 2008).

Molecular target: T1, human FXa (Homo sapiens, UniProt P00742)
T1 construct: FXa solution (human FXa, Haematologic Technologies Inc., Essec Junction, Vt., USA); purchased Haematologic Technologies Inc
Test: Measurement of Factor Xa inhibition (chromogenic substrate S-2765 method)
Type: biochemical
Details: inhibition of Factor Xa activity, screen a), specimen results
Experimental: a) Measurement of Factor Xa Inhibition
The FXa inhibitor potency was measured with a chromogenic substrate method, in a Plato 3300 robotic microplate processor (Rosys AG, CH-8634 Hombrechtikon, Switzerland), using 96-well, half-volume microtiter plates (Costar, Cambridge, Mass., USA; Cat No 3690). Stock solutions of test substance in DMSO (72 μL), 10 mmol/L, alternatively 1 mmol/L were diluted serially 1:3 (24+48 μL) with DMSO to obtain ten different concentrations, which were analyzed as samples in the assay, together with controls and blanks. As control sample melagatran was analysed. The dilutions of each test substance were analyzed consecutively, row-wise on the microtiter plate, with wash-cycles between substances to avoid cross-contamination. […] The final assay concentrations were: test substance 0.0068-133, respectively 0.00068-13.3 μmol/L, S-2765 0.40 mmol/L (KM=0.25 mmol/L) and FXa […]. The linear absorbance increase at 405 nm during 40 min incubation at 37° C. was used for calculation of percent inhibition for the test samples, as compared to references without inhibitor and/or enzyme. […]

T1 sequence (P00742 235-488 limits assumed): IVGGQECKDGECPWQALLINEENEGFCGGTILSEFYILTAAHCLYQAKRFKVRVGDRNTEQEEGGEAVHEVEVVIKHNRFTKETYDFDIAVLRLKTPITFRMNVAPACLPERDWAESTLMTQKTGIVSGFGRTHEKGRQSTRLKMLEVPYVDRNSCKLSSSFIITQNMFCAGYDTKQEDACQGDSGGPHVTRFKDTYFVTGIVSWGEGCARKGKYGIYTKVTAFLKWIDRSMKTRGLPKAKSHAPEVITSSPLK
T1 sequence (P00742 41-179 partner limits assumed): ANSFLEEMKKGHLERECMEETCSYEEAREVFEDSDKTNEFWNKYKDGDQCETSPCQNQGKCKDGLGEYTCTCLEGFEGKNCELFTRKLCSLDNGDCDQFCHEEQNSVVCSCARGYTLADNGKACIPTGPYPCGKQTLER

SMILES: Cn1nc(N2CCC(C(=O)N3CCN(S(=O)(=O)c4ccc5c(Cl)c[nH]c5c4)C(O)C3)CC2)ccc1=O (centres unmarked) [Example 3, 6-{4-[4-(3-Chloro-1H-indole-6-sulfonyl)-3-hydroxy-piperazine-1-carbonyl]-piperidin-1-yl}-2-methyl-2H-pyridazin-3-one]
- IC50: 4.8 nM

SMILES: Cc1cc(N2CCC(C(=O)N3CCN(S(=O)(=O)c4ccc5c(Cl)c[nH]c5c4)CC3)CC2)c[nH]c1=O [Example 6, 4-[4-(3-Chloro-1H-indole-6-sulfonyl)-piperazine-1-carbonyl]-5′-methyl-3,4,5,6-tetrahydro-2H,1′H-[1,3′]bipyridinyl-6′-one]
- IC50: 98 nM
